Several values for one entry are separate records, joined by “and”; a condition that tells them apart may be missing. Equal entries are not always repeated.
Assays:
[1] = Stability of TQL-1055 in HP-β-CD solution: pH; assay type: physicochemical; conditions: 1 mg/ml TQL-1055, 20% w/v HP-β-CD in PBS
Protocol: (§1) Solutions containing 20% w/v HP-β-CD and 1 mg/ml dissolved TQL-1055 were prepared according to the following procedure: (1) crush TQL-1055 and sonicate in PBS; (2) add HP-β-CD solution to create a final concentration of 1 mg/ml TQL-1055, 20% HP-β-CD in PBS buffer (3) sonicate for ˜30-60 minutes at 60C (4) obtain a clear solution having 1 mg/ml TQL-1055; 20% w/v HP-R-CD. Control samples containing 20% HP-β-CD were prepared. Optical density and pH were measured at t=1 day, 1 week, 1 month, and 2 months. HPLC was conducted at t=1 day, 1 week, 1 month, and 2 months.

[2] = Optical density (clarity) of TQL-1055 in HP-β-CD solution; assay type: physicochemical; conditions: for Dissolution of TQL-1055: heat and sonication one hour at 60° C.
Protocol: (§2) Two solutions were prepared: (1) 15% w/v HP-β-CD in 1 ml of PBS, add TQL-1055 (crushed) to achieve 1 mg/ml; and (2) 20% w/v HP-β-CD in 1 ml of PBS; add TQL-1055 (crushed) to achieve 1 mg/ml. Both solutions were solubilized using heat and sonication for one hour at 60° C.
Optical density shown below. Clarity is defined against background solvent optical density ([…]):
Three solutions were prepared: (1) 15% w/v HP-β-CD in 1 ml of PBS, add TQL-1055 (crushed) to achieve 2 mg/ml; (2) 20% w/v HP-β-CD in 1 ml of PBS; add TQL-1055 (crushed) to achieve 2 mg/ml; and (3) 25% w/v HP-β-CD in 1 ml of PBS; add TQL-1055 (crushed) to achieve 2 mg/ml. Solutions were solubilized using heat and sonication for one hour at 60° C. […]

[3] = Stability of TQL-1055 in HP-β-CD solution: clarity (optical density); assay type: physicochemical; conditions: 1 mg/ml TQL-1055, 20% w/v HP-β-CD in PBS
Protocol: as §1

CD-i mice = conditions: mouse, in vivo
[4] = pH of TQL-1055 HP-β-CD solutions (Example 1); assay type: physicochemical
Protocol: as §2

[5] = Stability of TQL-1055 in HP-β-CD solution: HPLC; assay type: physicochemical; set-up: unit not given here; conditions: 1 mg/ml TQL-1055, 20% w/v HP-β-CD in PBS
Protocol: as §1

[6] = Solubility in water at physiological pH; assay type: physicochemical; conditions: free acid form
[7] = 1 mg/ml TQL-1055 in 15% w/v HP-β-CD in PBS, 48 hours (stored at 5° C.)
[8] = 1 mg/ml TQL-1055 in 15% w/v HP-β-CD in PBS, 48 hours (stored at RT)
[9] = 1 mg/ml TQL-1055 in 20% w/v HP-β-CD in PBS, 48 hours (stored at 5° C.)
[10] = 1 mg/ml TQL-1055 in 20% w/v HP-β-CD in PBS, 48 hours (stored at RT)
[11] = 2 mg/ml in 15% w/v HP-β-CD in PBS (solution 1)

In the case of `CC1O[C@@H](OC2C(O)[C@@H](NC(=O)CCCCCCCCCCC(=O)O)C(CO)O[C@H]2OC(=O)[C@]23CCC(C)(C)CC2C2=CCC4C5(C)CC[C@H](O)C(C)(C=O)C5CCC4(C)C2(C)CC3O)C(O)C(O)[C@H]1O[C@@H]1OC[C@@H](O)C(O)C1O` (stereo partly shown) [TQL-1055], the pH ([1]; 5 C., 1 month) is reported as 7.81 and 7.32, the pH ([1]; 5 C., 1 week) is reported as 7.32 and 7.25 and the pH ([1]; 5 C., 2 month) is reported as 7.35 and 7.48. For the same compound, the pH ([1]; 5 C., Day 1) was 7.47 and 7.43, the pH ([1]; 25 C., 1 month) was 7.82 and 7.50 and the pH ([1]; 25 C., 1 week) was 7.35 and 7.00. For the same compound, the pH ([1]; 25 C., 2 month) was 7.51 and 7.44, the pH ([1]; 25 C., Day 1) was 7.45 and 7.47 and the pH ([1]; −20 C., 1 month) was 7.24 and 7.53. The pH ([1]; −20 C., 1 week) was 7.19 and 7.26, the pH ([1]; −20 C., 2 month) was 7.41 and 7.46 and the pH ([1]; −20 C., Day 1) was 7.35 and 7.41. The Optical density ([2]; 1 mg/ml TQL-1055 in 15% w/v HP-β-CD in PBS, 0 hour (after sonication)) was 0.055, the Optical density ([2]; 1 mg/ml TQL-1055 in 15% w/v HP-β-CD in PBS, 24 hours (stored at 5° C.)) was 0.051 and the Optical density ([2]; 1 mg/ml TQL-1055 in 15% w/v HP-β-CD in PBS, 24 hours (stored at RT)) was 0.051. For the same compound, the Optical density [2, 7] was 0.052, the Optical density [2, 8] was 0.051 and the Optical density ([2]; 1 mg/ml TQL-1055 in 20% w/v HP-β-CD in PBS, 0 hour (after sonication)) was 0.058. For the same compound, the Optical density ([2]; 1 mg/ml TQL-1055 in 20% w/v HP-β-CD in PBS, 24 hours (stored at 5° C.)) was 0.050, the Optical density ([2]; 1 mg/ml TQL-1055 in 20% w/v HP-β-CD in PBS, 24 hours (stored at RT)) was 0.050 and the Optical density [2, 9] was 0.056. The Optical density [2, 10] was 0.051, the “Dissolution of TQL-1055” value ([2]; 1 mg/ml in 15% and in 20% w/v HP-β-CD in PBS) was “dissolved completely” and the Optical density ([2]; 2 mg/ml TQL-1055 in 15% w/v HP-β-CD in PBS, 0 hour (after sonication), replicates) was 0.083, 0.083, (2×) and 0.083 (n = 3). For the same compound, the Optical density ([2]; 2 mg/ml TQL-1055 in 15% w/v HP-β-CD in PBS, 24 hours (stored at RT), replicates) was 0.081, 0.081, the Optical density ([2]; 2 mg/ml TQL-1055 in 15% w/v HP-β-CD in PBS, 48 hours (stored at RT), replicates) was 0.067 and 0.068 and the Optical density ([2]; 2 mg/ml TQL-1055 in 20% w/v HP-β-CD in PBS, 0 hour (after sonication), replicates) was 0.061 and 0.066 and 0.068 (n = 3). For the same compound, the Optical density ([2]; 2 mg/ml TQL-1055 in 20% w/v HP-β-CD in PBS, 24 hours (stored at RT), replicates) was 0.054, 0.054, the Optical density ([2]; 2 mg/ml TQL-1055 in 20% w/v HP-β-CD in PBS, 48 hours (stored at RT), replicates) was 0.049 and 0.053 and the Optical density ([2]; 2 mg/ml TQL-1055 in 25% w/v HP-β-CD in PBS, 0 hour (after sonication), replicates) was 0.052 (n = 3) and 0.049 and 0.051. For the same compound, the Optical density ([2]; 2 mg/ml TQL-1055 in 25% w/v HP-β-CD in PBS, 24 hours (stored at RT), replicates) was 0.053 and 0.054, the Optical density ([2]; 2 mg/ml TQL-1055 in 25% w/v HP-β-CD in PBS, 48 hours (stored at RT), replicates) was 0.057 and 0.055 and the Clarity of solution [2, 11] was “not completely clear”. The “Optical density (OD)” value [2, 11] was > 0.060, the “Dissolution of TQL-1055” value ([2]; 2 mg/ml in 20% (solution 2) and 25% (solution 3) w/v HP-β-CD in PBS) was “dissolved completely” and the “Clarity (OD)” value ([3]; 5 C., 1 month) was 0.0485 and 0.051. The “Clarity (OD)” value ([3]; 5 C., 1 week) was 0.051 and 0.053, the “Clarity (OD)” value ([3]; 5 C., 2 month) was 0.058 and 0.050 and the “Clarity (OD)” value ([3]; 5 C., Day 1) was 0.054 and 0.053. The “Clarity (OD)” value ([3]; 25 C., 1 month) was 0.053 and 0.0455, the “Clarity (OD)” value ([3]; 25 C., 1 week) was 0.049 and 0.052 and the “Clarity (OD)” value ([3]; 25 C., 2 month) was 0.051 and 0.05. For the same compound, the “Clarity (OD)” value ([3]; 25 C., Day 1) was 0.052 and 0.050, the “Clarity (OD)” value ([3]; −20 C., 1 month) was 0.049 and 0.0475 and the “Clarity (OD)” value ([3]; −20 C., 1 week) was 0.05 and 0.051. For the same compound, the “Clarity (OD)” value ([3]; −20 C., 2 month) was 0.054, the “Clarity (OD)” value ([3]; −20 C., Day 1) was 0.056 and 0.052 and the “Mortality (follow-on studies, text)” value (CD-i mice) was “did not result in mortality”. The pH [4, 7] was “(pH = 7.26)”, the pH [4, 8] was “(pH = 7.28)” and the pH [4, 9] was “(pH = 7.28)”. The pH [4, 10] was “(pH = 7.21)”, the HPLC ([5]; 5 C., 1 month) was 106.1 and 107.9 and the HPLC ([5]; 5 C., 1 week) was 104.4 and 108.9. The HPLC ([5]; 5 C., 2 months) was 109 and 105, the HPLC ([5]; 5 C., Day 1) was 105.4 and 109.4 and the HPLC ([5]; 25 C., 1 month) was 108.7 and 107.5. For the same compound, the HPLC ([5]; 25 C., 1 week) was 109.2 and 106.9, the HPLC ([5]; 25 C., 2 months) was 105 and the HPLC ([5]; 25 C., Day 1) was 106.1 and 109.4. The HPLC ([5]; −20 C., 1 month) was 109.6, the HPLC ([5]; −20 C., 2 months) was 105.3 and 102 and the HPLC ([5]; −20 C., Day 1) was 100 and 105.3. The solubility in water [6] was “poor solubility in water at physiological pH”.

Source: patent US20250025550A1, “ADJUVANT COMPOUNDS AND FORMULATIONS” (ADJUVANCE TECHNOLOGIES, INC., priority 2021, published 2025)
